Data: US20090220473A1, “ADIR RELATED POLYMORPHISMS AND APPLICATIONS THEREOF” (Leiden University Medical Center, priority 2006, published 2009)
Entries after “also recorded” stand apart in the source; their conditions may differ.

Key:
T2 cells = test: 51Cr release assay on peptide loaded T2 cells with CTL; assay type: cell-based; conditions: for recognition (lysis) by RDR2 of peptide loaded T2 cells: 51Cr release assay, FIG. 2b
Experimental: Cytotoxicity of CTL clones in standard ^51Cr release assays was performed as described previously (Faber et al. 1992, J Exp Med 176: 1283-1289). Target cells were labelled with 100 μCi Na2^51CrO4 (Amersham Biosciences, Freiburg, Germany) for 1 hour at 37° C., washed, and diluted to […] to 5*10^4 cells per ml to obtain 10^3 to 5*10^3 target cells per well. CTL's were added in various effector:target (E:T) ratios and incubated for 4 hours. Supernatants were harvested and transferred to solid scintillator containing microplates (Perkin Elmer, Boston Mass., USA) and counted on a Topcount counter (Perkin Elmer). HPLC purified natural peptides or diluted synthetic peptides were tested for reactivity by loading ^51Cr labelled T2 or donor EBV LCL cells for 1-2 hours at 37° C. and 5% CO2 prior to addition of CTL.

[1] = molecular target: T1, recombinant HLA A*0201 molecules (Homo sapiens, UniProt P04439, D140Y/D185E/D98H/E176V/E277Q/G131W/G231S/I119V/I121R/I166T/I218V/L300P/L318F/N151K/N90K/P208A/P217A/Q86G/Q94H/R138H/R169H/T345S); test: Binding of peptides to recombinant HLA A*0201 molecules (monomer folding)
T1 construct: biotin (biotinylated); made in house
Text: Recombinant biotinilated HLA A*0201 monomers were folded in the presence of β2-microbglobulin with peptide […] or […]. Streptavidin-PE and streptavidin-APC tetramers were produced with refolded complexes as described previously (Altman et al. 1996 Science 274: 94-96). Tetrameric complexes were used to stain thawed patient samples taken at the indicated time points post SCT and DLI. Cells were counterstained by CD8 APC (Caltag, Burlingame, Calif., USA) and analysed by flowcytometry. Tetramer positive events were single well FACS sorted, expanded and tested for cytotoxicity.

GVHD = test: Treatment of acute GVHD in the patient after DLI; assay type: in vivo, human; conditions: 1 mg prednisolone/kg body weight and cyclosporin A together
[2] = molecular target: recombinant HLA A*0201 molecules (human, biotinylated (site not stated)); test: refolding of recombinant HLA A*0201 with beta2-microglobulin and peptide

| binding to recombinant HLA A*0201 molecules [1] | binding result [2] | Molecule | recognition (lysis) by RDR2 of peptide loaded T2 cells (T2 cells) | other results |
| --- | --- | --- | --- | --- |
| able to bind |  | SVAPALALSPA [SVAPALAL-S-PA, donor-type allelic counterpart peptide with serine at position 9, reference compound] | not |  |
|  | binds | SVAPALALSPA (Synthetic peptide of the donor-type (Ser) allele) [peptide SVAPALALSPA] |  |  |

The remaining lines, values behind:

| Molecule | binding to recombinant HLA A*0201 molecules [1] | binding result [2] | recognition (lysis) by RDR2 of peptide loaded T2 cells (T2 cells) | other results |
| --- | --- | --- | --- | --- |
| SVAPAXAXFPA |  |  |  | peptide level at which lysis by RDR2 was reconstituted (T2 cells; 51Cr labelled T2 cells loaded with synthetic peptide, levels as low as, data not shown): ≤ 10 pM |
| C[C@]12C=CC(=O)C=C1CC[C@@H]1[C@@H]2[C@@H](O)C[C@@]2(C)[C@H]1CC[C@]2(O)C(=O)CO [prednisolone] |  |  |  | treatment of GVHD (GVHD): treated successfully |
| SVAPALALFPA [LB-ADIR-1F] | able to bind |  | lysed; also recorded: recognized |  |
| SVAPALALFPA (Synthetic 11-mer) [LB-ADIR-1F peptide SVAPALALFPA] |  | binds |  |  |
